PubChem BioAssay (NCI)
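Step 1: Grow cells in 96-well plates. Step 2: Expose to compound for 48 hours at 5 concentrations. Step 3: Interpolate endpoints linearly; if unreached, use highest concentration. At the GI50, growth is halved. TGI marks complete inhibition of growth.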

What was measured:
Test in all cases: DTP human tumour cell line panel, 48 h
K-562 leukemia = tested on: K-562 leukemia
A549 NSCLC = tested on: A549 NSCLC
SW-620 colon = tested on: SW-620 colon
UACC-62 melanoma = tested on: UACC-62 melanoma
EKVX NSCLC = tested on: EKVX NSCLC
HCT-116 colon = tested on: HCT-116 colon
SNB-19 CNS = tested on: SNB-19 CNS
786-0 renal = tested on: 786-0 renal
CCRF-CEM leukemia = tested on: CCRF-CEM leukemia
T-47D breast = tested on: T-47D breast

C=CCn1c(=S)sc2c(C(=O)OCC)c3c(C)cc(C)cn3c2c1=O gave a TGI (K-562 leukemia) of over 100 µM, a TGI (A549 NSCLC) of over 100 µM and a TGI (SW-620 colon) of over 100 µM. For the same compound, the TGI (UACC-62 melanoma) was over 100 µM, the TGI (EKVX NSCLC) was over 100 µM and the TGI (HCT-116 colon) was over 100 µM. It also gave a TGI (SNB-19 CNS) of over 100 µM, a TGI (786-0 renal) of over 100 µM and a TGI (CCRF-CEM leukemia) of over 100 µM.
Compound C=C(C)[C@@H]1CCC=C2CC[C@]3(C)[C@H](CC[C@@H]4[C@@]5(C)CCCNC(C)(C)[C@@H]5CC[C@]43C)[C@H]21 has a GI50 (A549 NSCLC) of 2.04 µM, a TGI (A549 NSCLC) of 3.86 µM and a GI50 (SW-620 colon) of 1.84 µM. For the same compound, the TGI (SW-620 colon) was 3.59 µM, the GI50 (T-47D breast) was 1.77 µM and the TGI (T-47D breast) was 4.83 µM. For the same compound, the GI50 (UACC-62 melanoma) was 1.92 µM, the TGI (UACC-62 melanoma) was 3.84 µM and the GI50 (EKVX NSCLC) was 2.17 µM. For the same compound, the TGI (EKVX NSCLC) was 5.6 µM, the GI50 (HCT-116 colon) was 1.79 µM and the TGI (HCT-116 colon) was 3.2 µM. It also gave a GI50 (786-0 renal) of 1.68 µM, a TGI (786-0 renal) of 3.04 µM and a GI50 (CCRF-CEM leukemia) of 2.48 µM. The TGI (CCRF-CEM leukemia) was 7.21 µM.
Cc1ccc(S(=O)(=O)N/N=C(\c2nc3ccc(Cl)cc3[nH]c2=O)C(O)c2ccco2)cc1 (centres undefined) showed a TGI (K-562 leukemia) of over 100 µM, a TGI (A549 NSCLC) of over 100 µM and a TGI (SW-620 colon) of over 100 µM. For the same compound, the TGI (UACC-62 melanoma) was over 100 µM, the TGI (EKVX NSCLC) was over 100 µM and the TGI (HCT-116 colon) was over 100 µM. For the same compound, the TGI (SNB-19 CNS) was over 100 µM, the TGI (786-0 renal) was over 100 µM and the TGI (CCRF-CEM leukemia) was over 100 µM.
Work on O=c1cc(-c2ccccn2)[nH]c2cccc(F)c12 yielded a TGI (K-562 leukemia) of over 100 µM, a TGI (A549 NSCLC) of over 100 µM and a TGI (SW-620 colon) of over 100 µM. It also gave a TGI (UACC-62 melanoma) of over 100 µM, a TGI (EKVX NSCLC) of over 100 µM and a TGI (SNB-19 CNS) of over 100 µM. For the same compound, the TGI (786-0 renal) was over 100 µM and the TGI (CCRF-CEM leukemia) was over 100 µM.
In the case of Cc1ccc(S(=O)(=O)Oc2ccc3c4c(c(=O)oc3c2)CCCCCC4)cc1, the GI50 (K-562 leukemia) is reported as 3.88 µM, the TGI (K-562 leukemia) is reported as over 100 µM and the GI50 (A549 NSCLC) is reported as over 100 µM. The TGI (A549 NSCLC) was over 100 µM, the GI50 (SW-620 colon) was 2.76 µM and the TGI (SW-620 colon) was over 100 µM. For the same compound, the GI50 (T-47D breast) was 5.05 µM, the TGI (T-47D breast) was over 100 µM and the GI50 (UACC-62 melanoma) was over 100 µM. For the same compound, the TGI (UACC-62 melanoma) was over 100 µM, the GI50 (HCT-116 colon) was 8.04 µM and the TGI (HCT-116 colon) was over 100 µM. The GI50 (SNB-19 CNS) was over 100 µM, the TGI (SNB-19 CNS) was over 100 µM and the GI50 (786-0 renal) was over 100 µM. The TGI (786-0 renal) was over 100 µM, the GI50 (CCRF-CEM leukemia) was 8.92 µM and the TGI (CCRF-CEM leukemia) was over 100 µM.
With COc1c(C(C)=O)c(OCCCCOc2c(C(C)=O)c(OC)c3ccoc3c2OC)c(OC)c2occc12 the GI50 (K-562 leukemia) was 5.45 µM, the TGI (K-562 leukemia) was over 100 µM and the GI50 (A549 NSCLC) was 3.35 µM. For the same compound, the TGI (A549 NSCLC) was over 100 µM, the GI50 (SW-620 colon) was over 100 µM and the TGI (SW-620 colon) was over 100 µM. For the same compound, the GI50 (T-47D breast) was 2.02 µM, the TGI (T-47D breast) was over 26.4 µM and the GI50 (UACC-62 melanoma) was 2.13 µM. For the same compound, the TGI (UACC-62 melanoma) was over 100 µM, the GI50 (EKVX NSCLC) was 2.48 µM and the TGI (EKVX NSCLC) was over 100 µM. For the same compound, the GI50 (HCT-116 colon) was 3.71 µM, the TGI (HCT-116 colon) was over 100 µM and the GI50 (SNB-19 CNS) was over 28.9 µM. It also gave a TGI (SNB-19 CNS) of over 100 µM, a GI50 (786-0 renal) of over 100 µM and a TGI (786-0 renal) of over 100 µM.
Work on CCCn1c(SCCSc2c3ccccc3c(-c3nc(F)nc(F)n3)n2CCC)c2ccccc2c1-c1nc(F)nc(F)n1 yielded a TGI (K-562 leukemia) of over 100 µM, a TGI (A549 NSCLC) of over 100 µM and a TGI (SW-620 colon) of 32.6 µM. The TGI (UACC-62 melanoma) was over 100 µM, the TGI (EKVX NSCLC) was over 100 µM and the TGI (HCT-116 colon) was over 100 µM. For the same compound, the TGI (SNB-19 CNS) was over 100 µM, the TGI (786-0 renal) was over 100 µM and the TGI (CCRF-CEM leukemia) was over 100 µM.
Compound Cc1c(C(=O)C/C(=N/NC(=O)c2ccccc2)C(=O)Nc2ccc(Cl)cc2)[n+](=O)c2ccccc2n1[O-] has a TGI (K-562 leukemia) of over 100 µM, a TGI (A549 NSCLC) of over 100 µM and a TGI (SW-620 colon) of over 100 µM. The TGI (HCT-116 colon) was over 100 µM, the TGI (SNB-19 CNS) was over 100 µM and the TGI (786-0 renal) was over 100 µM. The TGI (CCRF-CEM leukemia) was 74.4 µM.
